US20060270694A1, “JAK kinase inhibitors and their uses” (Rigel Pharmaceuticals, Inc., priority 2005, published 2006)

Test system: JAK kinase (JAK1 and JAK3)
Test: IL-4 activation assay: CD23 upregulation in IL-4 stimulated Ramos B-cells, FACS
Type: cell-based, human
Protocol: The selectivity of the compounds illustrated in TABLES 1 and 2 for JAK kinases as compared to Syk kinase was confirmed in cellular assays designed to test for JAK and Syk inhibition. Briefly, JAK inhibition was tested in human Ramos B-cells activated with IL-4. Twenty to 24 hours post stimulation, the cells are stained for upregulation of CD23 and analyzed by FACS. Stimulation of the B-cells with IL-4 leads to the activation of the JAK/STAT pathway through phosphorylation of the JAK kinase JAK1 and JAK3, which in turn phosphorylate and activate transcription of factor […].
For the assay, human Ramos B-cells (ATCC, Catalog No. CRL-1596) are cultured in RPMI 1640 medium (Cellgro, Catalog No. 10-040-CM) containing 10% fetal bovine serum (JRH, Catalog No. 12106-500M) according to the propagation protocol supplied with the cells, and maintained at a density of approximately 3.5×10^5 cells/ml. The day before the assay, the cells are diluted to 3.5×10^5 cells/ml to insure they are in the logorithmic growth phase. The cells are spun down, and suspended in RPMI 1640 medium containing 5% fetal bovine serum to a density of 3.5×10^4 cells/ml and aliquots dispensed into a 96-well tissue culture plate. Cells are incubated with test compound (dissolved in DMSO) or DMSO (control) for 1 hr at 37° C. and then stimulated with IL-4 (Pepotech, Catalog No. 200-04) for 20-24 hours (final concentration is 50 Units/ml). Cells are then spun down, stained with anti-CD23-PE antibody (BD Pharmigen, Catalog No.555711) and analyzed by FACS.

[1] = TABLE 1, IC50 CHMC degranulation / IC50 IL-4 Ramos CD23, minimum ratio, calculated using Syk IC50 of 50 μM (upper limit of assay)
[2] = TABLE 2, IC50 CHMC degranulation (tryptase) / IC50 IL-4 Ramos CD23

Row | Structure (SMILES) | IC50 Ratio (Syk/JAK) [1] | IC50 Ratio (Syk/JAK) [2]
1 | CN1CCN(c2ccc(Nc3ncc(F)c(NC4CC(C)(C)N(C)C(C)(C)C4)n3)cc2Cl)CC1 [Cmpd 1] | 207 | 
2 | Cc1cc(Nc2ncc(F)c(NC3CCCC3C(N)=O)n2)ccc1N1CCN(C)CC1 (stereo not shown) [Cmpd 2] | 155 | 
3 | Cc1ccc(Nc2ccnc(Nc3ccc(C)c([N+](=O)[O-])c3)n2)cc1[N+](=O)[O-] [Cmpd 3] | 147 | 
4 | Cc1noc(COc2ccc(Nc3nc(Nc4cc(Cl)c(O)c(Cl)c4)ncc3F)cc2)n1 [Cmpd 4] | 145 | 
5 | COC(=O)c1cc(Nc2ncc(F)c(Nc3ccc4c(c3)OCCO4)n2)cc(-c2ncco2)c1 [Cmpd 5] | 105 | 
6 | NC(=O)c1ccc(Nc2ncc(F)c(NC3CCCC3)n2)cc1 [Cmpd 6] | 70 | 
7 | CNC(=O)n1ccc2ccc(Nc3nc(Nc4cc(C)cc(C)c4)ncc3F)cc21 [Cmpd 7] | 57 | 
8 | CNC(=O)COc1cccc(Nc2ncc(F)c(Nc3ccc(OC)c(CN(C)C)c3)n2)c1 [Cmpd 8] | 51 | 
9 | CCNC(=O)Nc1ccc(Nc2ncc(F)c(Nc3ccc(NC(=O)NCC)cc3)n2)cc1 [Cmpd 9] | 47 | 
10 | CCOC(=O)c1cnc(Nc2ccc3[nH]ncc3c2)nc1Nc1ccc2[nH]ncc2c1 [Cmpd 10] | 43 | 
11 | CC(C)Nc1nc(Nc2cccc(N3CCN(C)CC3)c2)ncc1F [Cmpd 11] | 38 | 
12 | Oc1cccc(Nc2ncc(F)c(Nc3cccc(-c4nnc(-c5ccccc5)o4)c3)n2)c1 [Cmpd 12] | 36 | 
13 | CNC(=O)C1=Cc2cccc(Nc3ncc(F)c(Nc4cc(C)cc(C)c4)n3)c2C1 [Cmpd 13] | 26 | 
14 | Cc1cc(Nc2ncc(F)c(N[C@@H]3CC=CC[C@H]3C(N)=O)n2)ccc1N1CCN(C)CC1 [Cmpd 14] | 25 | 
15 | COc1ccc(Nc2ccnc(Nc3ccc(OC)c(-c4ccccc4)c3)n2)cc1-c1ccccc1 [Cmpd 15] | 24 | 
16 | Fc1cnc(Nc2ccc3c(c2)OCCO3)nc1Nn1cccc1 [Cmpd 16] | 22 | 
17 | CCCCOc1ccc(Nc2nc(Nc3ccc4c(c3)OCCO4)ncc2F)cc1 [Cmpd 17] | 20 | 
18 | O=C(O)C1CCC(Nc2nc(Nc3ccc4c(c3)OCCO4)ncc2F)CC1 (stereo not shown) [Cmpd 18] | 20 | 
19 | Fc1cnc(Nc2ccc3c(c2)OCCO3)nc1NC1CCCCC1 [Cmpd 19] | 15 | 
20 | CC(=O)N(C)c1ccc(Nc2ncc(F)c(N3CCN(C)CC3)n2)cc1 [Cmpd 20] | 14 | 
21 | COc1ccc(Nc2nc(Nc3cc(Cl)c(OC)c(Cl)c3)ncc2F)cc1Cl [Cmpd 21] | 14 | 
22 | CNC(=O)COc1cccc(Nc2ncc(F)c(Nc3ccc(OC)c(CN(C(=O)OC(C)(C)C)C(C)C)c3)n2)c1 [Cmpd 22] | 13 | 
23 | CCN1CCN(c2ccc(Nc3ncc(F)c(NC4CC(C)(C)N(C)C(C)(C)C4)n3)cn2)CC1 [Cmpd 23] | 12 | 
24 | Fc1ccc(Nc2ncc(F)c(Nc3ccc4c(c3)OCCO4)n2)cc1Cl [Cmpd 24] | 12 | 

Row | Structure (SMILES) | IC50 Ratio (Syk/JAK) [1] | IC50 Ratio (Syk/JAK) [2]
25 | COC(=O)c1ccc(Nc2ncc(F)c(Nc3ccc(OC)c(Cl)c3)n2)cc1 [Cmpd 25] | 13 | 
26 | C[C@H]1Oc2ccc(Nc3nc(Nc4ccc(C(=O)NCC(=O)O)cc4)ncc3F)cc2NC1=O [Cmpd 26] | 10 | 
27 | CCN(CC)CCNC(=O)c1ccc(Nc2ncc(F)c(Nc3ccc4c(c3)NC(=O)[C@H](C)O4)n2)cc1 [Cmpd 27] |  | 247
28 | Cc1cc(Nc2nc(Nc3ccc(C(N)=O)cc3)ncc2F)ccc1N1CCN(C)CC1 [Cmpd 28] |  | 146
29 | Fc1cnc(Nc2cccc(-c3ncco3)c2)nc1Nc1cc(C2CC2)n[nH]1 [Cmpd 29] |  | 109
30 | CN1CCN(c2ccc(Nc3ncc(F)c(Nc4cc(C5CC5)n[nH]4)n3)cc2Cl)CC1 [Cmpd 30] |  | 85
31 | CNC(=O)COc1cc(Nc2ncc(F)c(Nc3cccc(O)c3)n2)cc(OCC(=O)NC)c1 [Cmpd 31] |  | 74
32 | NCc1ccc(Nc2ncc(F)c(Nc3ccc(CN)cc3)n2)cc1 [Cmpd 32] |  | 65
33 | CCN(CC)CCNC(=O)c1ccc(Nc2ncc(F)c(Nc3ccc4c(c3)NC(=O)C(CCO)O4)n2)cc1 (stereo not shown) [Cmpd 33] |  | 57
34 | CCN(CC)CCNC(=O)c1ccc(Nc2ncc(F)c(Nc3ccc(OCc4nc(C)no4)cc3)n2)cc1 [Cmpd 34] |  | 55
35 | COc1cc(OC)cc(N(C)c2nc(Nc3cc(C)cc(C)c3)ncc2F)c1 [Cmpd 35] |  | 44
36 | COc1ccc(Nc2nc(Nc3ccc(N4CCN(C)CC4)c(C#N)c3)ncc2F)cc1Cl [Cmpd 36] |  | 43
37 | C[C@@H]1Oc2ccc(Nc3nc(Nc4ccc(CN)cc4)ncc3F)cc2NC1=O [Cmpd 37] |  | 42
38 | CCN(CC)CCNC(=O)c1ccc(Nc2ncc(F)c(NC3CCCC3)n2)cc1 [Cmpd 38] |  | 39
39 | CN1CCN(c2ccc(Nc3ncc(F)c(NC4CCC4)n3)cc2CO)CC1 [Cmpd 39] |  | 59
40 | CN1CCN(c2cccc(Nc3ncc(F)c(Nc4ccc5c(n4)NCCO5)n3)c2)CC1 [Cmpd 40] |  | 32
41 | COc1ccc(N(C)c2nc(Nc3cccc(-c4ncco4)c3)ncc2F)cc1OC [Cmpd 41] |  | 32
42 | C[C@@H]1Oc2ccc(Nc3nc(Nc4ccc(C(N)=O)cc4)ncc3F)cc2NC1=O [Cmpd 42] |  | 32
43 | COc1c(C)cc(Nc2ncc(F)c(NC3=NCCN3)n2)cc1C [Cmpd 43] |  | 31
44 | NCc1cccc(Nc2ncc(F)c(Nc3cccc(CN)c3)n2)c1 [Cmpd 44] |  | 30
45 | COc1ccc(Nc2nc(Nc3cccc(-c4ncco4)c3)ncc2F)cc1OC [Cmpd 45] |  | 30
46 | NC(=O)c1ccc(Nc2ncc(F)c(Nc3ccc(C(N)=O)cc3)n2)cc1 [Cmpd 46] |  | 30
47 | CCN(CC)CCNC(=O)c1ccc(Nc2ncc(F)c(Nc3cc(OC)cc(OC)c3)n2)cc1 [Cmpd 47] |  | 29
48 | CCN(CC)CCNC(=O)c1ccc(Nc2ncc(F)c(Nc3ccc(Cl)c(OC)c3)n2)cc1 [Cmpd 48] |  | 28

Row | Structure (SMILES) | IC50 Ratio (Syk/JAK) [1] | IC50 Ratio (Syk/JAK) [2]
49 | Cc1cc(Nc2ncc(F)c(NC3CC(C)(C)N(C)C(C)(C)C3)n2)ccc1N1CCN(C)CC1 [Cmpd 49] |  | 26
50 | COc1ccc(Nc2nc(Nc3ccc(N4CCN(C)CC4)c(C(N)=O)c3)ncc2F)cc1Cl [Cmpd 50] |  | 26
51 | COc1ccc(Nc2ncc(F)c(Nc3ccc(OCc4nc(C)no4)cc3)n2)cc1Cl [Cmpd 51] |  | 25
52 | NCCNC(=O)c1cc2cc(Nc3ncc(F)c(Nc4ccc5oc(C(=O)NCCN)cc5c4)n3)ccc2o1 [Cmpd 52] |  | 25
53 | CNC(=O)CNC(=O)c1ccc(Nc2ncc(F)c(Nc3ccc4c(c3)C(N)CCO4)n2)cc1 (stereo not shown) [Cmpd 53] |  | 24
54 | N#Cc1ccc(Nc2ncc(F)c(Nc3ccc(C#N)cc3)n2)cc1 [Cmpd 54] |  | 24
55 | CNC(=O)c1cc(Nc2ncc(F)c(Nc3ccc(OC)c(Cl)c3)n2)ccc1N1CCN(C)CC1 [Cmpd 55] |  | 23
56 | CN1CCN(C(=O)CNc2cccc(Nc3ncc(F)c(Nc4cccc(NCCO)c4)n3)c2)CC1 [Cmpd 56] |  | 21
57 | O=C1Nc2ccc(Nc3nc(Nc4cccc(-c5ncco5)c4)ncc3F)cc2OC1CCO (stereo not shown) [Cmpd 57] |  | 21
58 | CCN(CC)CCNC(=O)c1ccc(Nc2ncc(F)c(Nc3ccc(OC)c(Cl)c3)n2)cc1 [Cmpd 58] |  | 21
59 | CCN(CC)CCNC(=O)c1ccc(Nc2ncc(F)c(Nc3ccc(Cl)c(Cl)c3)n2)cc1 [Cmpd 59] |  | 21
60 | NC(=O)c1ccc(Nc2ncc(F)c(Nc3ccc4c(c3)NC(=O)C(CCO)O4)n2)cc1 (stereo not shown) [Cmpd 60] |  | 20
61 | COC(=O)c1ccc(Nc2ncc(F)c(Nc3ccc(C(=O)OC)cc3)n2)cc1 [Cmpd 61] |  | 20
62 | O=[N+]([O-])c1cc(Nc2ccnc(Nc3ccc(Cl)c([N+](=O)[O-])c3)n2)ccc1Cl [Cmpd 62] |  | 19
63 | COc1ccc(Nc2nc(Nc3cccc(-c4nnc(C(C)(C)C)o4)c3)ncc2F)cc1OC [Cmpd 63] |  | 19
64 | CS(=O)(=O)Nc1ccc(Nc2ncc(F)c(Nc3ccc(NS(C)(=O)=O)cc3)n2)cc1 [Cmpd 64] |  | 19
65 | CCN(CC)CNC(=O)c1ccc(Nc2ncc(F)c(Nc3ccc4c(c3)C(=O)NC(=O)C4(C)C)n2)cc1 [Cmpd 65] |  | 18
66 | CNC(=O)CNC(=O)c1ccc(Nc2ncc(F)c(Nc3ccc(OC)c(Cl)c3)n2)cc1 [Cmpd 66] |  | 17
67 | COC(=O)CNC(=O)c1ccc(Nc2ncc(F)c(Nc3ccc(OCc4nc(C)no4)cc3)n2)cc1 [Cmpd 67] |  | 17
68 | CNC(=O)COc1cccc(Nc2ncc(F)c(Nc3ccc(OC)c(C(=O)OC)c3)n2)c1 [Cmpd 68] |  | 16
69 | Cc1cc(Nc2ncc(F)c(NC3C=C[C@@H](C(N)=O)C3)n2)ccc1N1CCN(C)CC1 (stereo partly shown) [Cmpd 69] |  | 16
70 | CNC(=O)CNC(=O)c1ccc(Nc2ncc(F)c(Nc3ccc4c(c3)NC(=O)C(C)(C)O4)n2)cc1 [Cmpd 70] |  | 15
